Data taken from US20240239804A1, “FUROINDAZOLE DERIVATIVES AS ANTAGONISTS OR INHIBITORS OF GPR84” (Bayer Aktiengesellschaft, priority 2021, published 2024).
Where a name gives a salt, the structure may show the parent alone.

Molecular target: T1, human GPR84 receptor (Homo sapiens, UniProt Q9NQS5)
T1 construct: frozen aliquots prepared by acCELLerate; host or cells: CHO-K1
Assay: cAMP HTRF assay for identification of cellular GPR84 antagonists
Format: cell-based
Settings: CHO-K1 cells stably expressing human GPR84; Forskolin plus agonist 6-OAU; cAMP HTRF readout; average or median values
Excerpt: cAMP HTRF® Assay for Identification of Cellular GPR84 Antagonists
By using a Homogenous Time-Resolved Fluorescence (HTRF®) based assay (#62AM5PEJ, Cisbio, Condolet, France) the inhibition of the Gi-coupled GPR84 receptor can be detected. CHO-K1 cells stably expressing human GPR84 receptor (purchased from DiscoveRx, now Eurofins) were used and treated with Forskolin (F6886, Sigma, Germany) to stimulate membrane adenylyl cyclases and thereby unspecific cAMP formation. Activation of the Gi-coupled GPR84 by a natural or small molecule agonist (e.g. 6-n-octyl aminouracile, inhouse) results in inhibition of cellular cAMP formation which can be released again by antagonists to this receptor. Detection and quantification of cellular cAMP levels in this HTRF assay is achieved by interaction between a fluorescent cAMP tracer (cAMP-d2) and an Eu-cryptate labelled anti-cAMP antibody. Following excitation at 337 nm this pairing allows for the generation of a fluorescence resonance energy transfer (FRET) between the partners and results in FRET induced emissions at 665 nm and 620 nm, the latter representing background signal by Eu-cryptate labelled anti-cAMP antibody. Maximal signal is obtained in the absence of any cellular cAMP (no competition for the binding of the tracer to the antibody). Given the combination of the Gi coupling properties of GPR84 and the competitive nature of the detection system agonist treatment should result in an increase in the HTRF signal due to lowered cAMP levels. Any signal decrease in the presence of Forskolin, agonist and compound are indicative of antagonist mediated abrogation of GPR84 signalling.
For the assay, frozen aliquots of CHO-K1 cells expressing hGPR84 (prepared by acCELLerate, Hamburg, Germany) were thawed and a cell suspension (1.67E+06 cells/mL) in assay media (Ham's F12 Nutrient Mix, Thermo Fisher Scientific, Waltham, USA; 5% fetal calf serum, Biomol, Hamburg, Germany) containing cAMP-d2 (dilution 1:20, supplied with the kit #62AM5PEJ, Cisbio, Condolet, France) was prepared. After recovery of cells for 20 minutes at 37° C., 3 μL/well cell suspension including cAMP-d2 were added to a pre-dispensed assay plate (Greiner Bio-One, Kremsmuenster, Austria) containing 50 nl/well test compound in 100% DMSO or 100% DMSO as control. This was followed by a 30 minute incubation step at room temperature. The stimulation time was started by addition of 2 μL/well assay media containing 2.5×EC80 agonist 6-OAU and 2.5×EC90 Forskolin (negative control: 2.5×EC90 Forskolin in assay media) and was continued for 30 minutes at room temperature. The reaction was stopped by addition of 3 μL/well lysis buffer containing cAMP Eu-Cryptate antibody (dilution 1:20) (both supplied with the kit #62AM5PEJ, Cisbio, Condolet, France). To enable complete lysis, plates were incubated for 60 minutes at room temperature before measurement in an HTRF reader, e.g. a PHERAstar (BMG Labtech, Ortenberg, Germany).
From the fluorescence emissions at 665 nm (FRET) and at 620 nm (background signal of Eu-cryptate) the ratio (emission at 665 nm divided by emission at 620 nm×10000) was calculated and the data were normalized (reaction without test compound, only 100% DMSO=0% inhibition; all other assay components except agonist=100% inhibition). For dose response testing on the same microtiter plate, compounds were tested at 11 different concentrations in the range of 20 μM to 0.07 nM (20 μM, 5.7 μM, 1.6 μM, 0.47 μM, 0.13 μM, 38 nM, 11 nM, 3.1 nM, 0.89 nM, 0.25 and 0.07 nM; dilution series prepared before the assay at the level of the 100-fold conc. stock solutions by serial 1:3.5 dilutions in 100% DMSO) in duplicate values for each concentration. IC50 values were calculated by 4-parameter fitting using a commercial software package (Genedata Screener, Basel, Switzerland).
Examples were tested in selected biological assays one or more times. […]

T1 sequence (Q9NQS5 whole entry): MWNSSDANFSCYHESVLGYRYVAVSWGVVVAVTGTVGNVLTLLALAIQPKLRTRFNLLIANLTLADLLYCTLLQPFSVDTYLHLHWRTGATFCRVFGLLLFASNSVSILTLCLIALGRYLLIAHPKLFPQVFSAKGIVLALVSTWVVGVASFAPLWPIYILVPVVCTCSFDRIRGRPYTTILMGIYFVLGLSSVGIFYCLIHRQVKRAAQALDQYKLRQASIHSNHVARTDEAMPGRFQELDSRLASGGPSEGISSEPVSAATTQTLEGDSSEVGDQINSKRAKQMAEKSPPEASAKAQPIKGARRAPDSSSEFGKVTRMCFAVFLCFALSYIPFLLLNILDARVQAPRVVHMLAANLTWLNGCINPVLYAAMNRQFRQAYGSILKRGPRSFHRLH

IC50	SMILES
0.023 µM	Cc1ccccc1Cn1cc2c(n1)-c1c(oc(C(=O)NC[C@@H]3CCCO3)c1C)CC2 [Example 4, 8-methyl-2-[(2-methylphenyl)methyl]-N-[(2S)-tetrahydrofuran-2-ylmethyl]-4,5-dihydro-2H-furo[2,3-g]indazole-7-carboxamide]
1.01 µM	Cc1c(C(=O)NCc2ccno2)oc2c1-c1nn(Cc3ccc(Cl)cc3)cc1CC2 [Example 28, 2-[(4-chlorophenyl)methyl]-8-methyl-N-[(1,2-oxazol-5-yl)methyl]-4,5-dihydro-2H-furo[2,3-g]indazole-7-carboxamide]
0.009 µM	Cc1ccccc1Cn1cc2c(n1)-c1c(oc(C(=O)NC[C@@H]3COCCO3)c1C)CC2 [Example 5, N-{[(2R)-1,4-dioxan-2-yl]methyl}-8-methyl-2-[(2-methylphenyl)methyl]-4,5-dihydro-2H-furo[2,3-g]indazole-7-carboxamide]
0.82 µM	Cc1c(C(=O)NCCN2CCN(C)CC2)oc2c1-c1nn(Cc3ccc(F)cc3Cl)cc1CC2 [Example 93]
2.59 µM	Cc1c(C(=O)N2CC(Cc3ccccc3)C2)oc2c1-c1nn(Cc3ccc(Cl)cc3)cc1CC2 [Example 49, (3-benzylazetidin-1-yl){2-[(4-chlorophenyl)methyl]-8-methyl-4,5-dihydro-2H-furo[2,3-g]indazol-7-yl}methanone]
3 µM	Cc1c(C(=O)NCC(=O)N2CCOCC2)oc2c1-c1nn(Cc3ccc(Cl)cc3)cc1CC2 [Example 35, 2-[(4-chlorophenyl)methyl]-8-methyl-N-[2-(morpholin-4-yl)-2-oxoethyl]-4,5-dihydro-2H-furo[2,3-g]indazole-7-carboxamide]
2.69 µM	Cc1c(C(=O)NCc2cnn3ccccc23)oc2c1-c1nn(Cc3ccc(Cl)cc3)cc1CC2 [Example 50, 2-[(4-chlorophenyl)methyl]-8-methyl-N-[(pyrazolo[1,5-a]pyridin-3-yl)methyl]-4,5-dihydro-2H-furo[2,3-g]indazole-7-carboxamide]
17.1 µM	Cc1c(C(=O)N2CCCCC2)oc2c1-c1nn(Cc3ccc(Cl)cc3)cc1CC2 [Example 87]
1.18 µM	Cc1ccccc1Cn1cc2c(n1)-c1c(oc(C(=O)NCC3CCCN3)c1C)CC2 (racemic) [Example 7-3, 8-methyl-2-[(2-methylphenyl)methyl]-N-{[(2RS)-pyrrolidin-2-yl]methyl}-4,5-dihydro-2H-furo[2,3-g]indazole-7-carboxamide hydrochloride (1:1)]
0.32 µM	Cc1c(C(=O)NCCN2CCN(C)CC2)oc2c1-c1nn(Cc3cccc(Cl)c3)cc1CC2 [Example 17, 2-[(3-chlorophenyl)methyl]-8-methyl-N-[2-(4-methylpiperazin-1-yl)ethyl]-4,5-dihydro-2H-furo[2,3-g]indazole-7-carboxamide]
0.5 µM	CCNC(=O)CNC(=O)c1oc2c(c1C)-c1nn(Cc3ccc(Cl)cc3)cc1CC2 [Example 30, 2-[(4-chlorophenyl)methyl]-N-[2-(ethylamino)-2-oxoethyl]-8-methyl-4,5-dihydro-2H-furo[2,3-g]indazole-7-carboxamide]
0.52 µM	Cc1c(C(=O)NCC2CCCO2)oc2c1-c1nn(Cc3ccc(Cl)cc3)cc1CC2 (single isomer, unassigned) [Example 21-1]
13 µM	Cc1c(C(=O)N(C)Cc2cnn(C)c2)oc2c1-c1nn(Cc3ccc(Cl)cc3)cc1CC2 [Example 76, 2-[(4-chlorophenyl)methyl]-N,8-dimethyl-N-[(1-methyl-1H-pyrazol-4-yl)methyl]-4,5-dihydro-2H-furo[2,3-g]indazole-7-carboxamide]
15.9 µM	COCCN(C)C(=O)c1oc2c(c1C)-c1nn(Cc3ccc(Cl)cc3)cc1CC2 [Example 80, 2-[(4-chlorophenyl)methyl]-N-(2-methoxyethyl)-N,8-dimethyl-4,5-dihydro-2H-furo[2,3-g]indazole-7-carboxamide]
5.04 µM	Cc1c(C(=O)NCCc2ccccc2)oc2c1-c1nn(Cc3ccc(Cl)cc3)cc1CC2 [Example 57, 2-[(4-chlorophenyl)methyl]-8-methyl-N-(2-phenylethyl)-4,5-dihydro-2H-furo[2,3-g]indazole-7-carboxamide]
